Values after ≈ are worked out from the molar mass of the structure shown.

Experiment [1] has as its system Mycobacterium tuberculosis. In words: Antitubercular activity against Mycobacterium tuberculosis H37Ra after 5 days by micro Alamar blue essay. It counts as functional. Conditions: 120 h. For orientation: The colour change of resazurin is a common sign of viable cells or microbes.
Experiment [2] has as its system Mycobacterium tuberculosis. In words: Antitubercular activity against Mycobacterium tuberculosis H37Rv after 30 days by agar microdilution method. The format is functional.

Regarding `COC1=C(OC)C(=CCn2cnc3ccccc32)OC1=O`, the MIC (as a rule, the least concentration at which growth counts as inhibited) is more than 12.5 µg/mL in experiment [1] and more than 25 µg/mL in experiment [2].
Taken in the same sequence, the figures for `COC1=C(OC)C(O)(CCn2ccnc2)N(Cc2ccccc2)C1=O` (centres undefined) were more than 12.5 µg/mL and more than 25 µg/mL.
For the compound `COC1=C(OC)/C(=C/Cn2ccnc2)OC1=O`, the MIC in experiment [1] was more than 12.5 µg/mL; in experiment [2] it was more than 25 µg/mL.
As to `COC1=C(OC)/C(=C/Cn2cnc3c(N)ncnc32)OC1=O`, the figures for the MIC in experiment [1] and in experiment [2] were more than 12.5 µg/mL and more than 25 µg/mL, respectively.
Consider `NNC(=O)c1ccncc1` [ISONIAZID], for which inhibition of growth in experiment [2] (MIC) required 0.65 µg/mL (≈ 4.74 µM).

The values above are taken from ChEMBL document CHEMBL3045900, “Synthesis and antitubercular activity of nucleoside analogs based on L-ascorbic acid and bases” (2008).
